From patent US8455444B2, “CDH3 peptide and medicinal agent comprising the same” (Oncotherapy Science, Inc., priority 2007, dated 2013)
Entries after “also recorded” stand apart in the source; their conditions may differ. Where a SMILES comes first, the peptide text is derived from it.

Columns and labels:
Assay type in all cases: cell-based
T2 cells = assay: 51Cr release assay of peptide-induced human CTLs against peptide-pulsed T2 cells; details: CTLs induced from PBMCs of HLA-A2 positive healthy donors, three stimulations
Source text: (§1) Human pancreatic cancer cell line PK8 was kindly provided by the Cell Resource Center for Biomedical Research, Institute of Development, Aging and Cancer, Tohoku University. Human colon cancer cell line HCT116 was kindly provided by Dr. B. Vogelstein, Johns Hopkins University (Baltimore, Md.). Human liver cancer cell line SKHep1 was kindly provided by Professor Kyogo Ito, Kurume University (Kurume, Japan).
PBMCs derived from heparinized blood of HLA-A2 positive pancreatic cancer patients, gastric cancer patients, colorectal cancer patients, or healthy donors were isolated by Ficoll-Conray density gradient centrifugation. […] DCs were pulsed with 20 μg/mL of a candidate peptide in the presence of 4 μg/mL β2-microglobulin (Sigma-Aldrich, St. Louis, Mo., USA) for two hours at 37° C. in AIM-V (Invitrogen) containing 2% heat-inactivated autologous plasma. These DCs were then irradiated (40 Gy) and incubated with CD8 positive cells. […] Six days after the last stimulation, the antigen-specific responses of induced CTLs were evaluated by ^51Cr release assay and IFN-γ ELISPOT assay.
CD8 T cells sorted from PBMCs were incubated with autologous mononuclear cell (monocyte)-derived DCs pulsed with each peptide. After three stimulations, cytocidal effect against peptide-pulsed T2 cells was evaluated by ^51Cr release assay (FIG. 4A) and IFN-γ ELISPOT assay.

HCT116 = assay: 51Cr release assay of peptide-induced human CTLs against cancer cell line; details: for cytotoxicity to HCT116: FIG. 4C: CTLs from PBMCs of HLA-A2 positive cancer patients; for cytotoxicity to HCT116 (CDH3+, HLA-A2+): CTLs from healthy donors
Source text: as §1
(§2) PBMCs derived from heparinized blood of HLA-A2 positive pancreatic cancer patients, gastric cancer patients, colorectal cancer patients, or healthy donors were isolated by Ficoll-Conray density gradient centrifugation. […] DCs were pulsed with 20 μg/mL of a candidate peptide in the presence of 4 μg/mL β2-microglobulin (Sigma-Aldrich, St. Louis, Mo., USA) for two hours at 37° C. in AIM-V (Invitrogen) containing 2% heat-inactivated autologous plasma. These DCs were then irradiated (40 Gy) and incubated with CD8 positive cells. The incubation was carried out in 24-well plates, which were prepared to contain in each well 2 mL of AIM-V supplemented with 2% autologous plasma, 1×10^5 peptide-pulsed DCs, 2×10^6 CD8^+ T cells, and 5 ng/mL of human recombinant IL-7 (Wako, Osaka, Japan). After two days, these cultures were supplemented with human recombinant IL-2 (PeproTec Inc.) to a final concentration of 20 IU/mL. Two additional weekly stimulations with the same peptide-pulsed autologous DCs using the same procedure were carried out on day 7 and day 14. Six days after the last stimulation, the antigen-specific responses of induced CTLs were evaluated by ^51Cr release assay and IFN-γ ELISPOT assay.

HSC3 = assay: as above; details: CTLs from healthy donors
Source text: as §1, §2

PANC1/CDH3 = assay: as above; details: for cytotoxicity to PANC1/CDH3: FIG. 4C: CTLs from PBMCs of HLA-A2 positive cancer patients
Experimental: as §1
(§3) After 60 hours, the culture medium was recovered and the viral particles were pelleted by ultracentrifugation (50,000×g, two hours).
as §2

SKHep1/CDH3 = assay: as above; details: FIG. 4C: CTLs from PBMCs of HLA-A2 positive cancer patients
Experimental: as §1, §3, §2

PANC1 = assay: as above; details: CTLs from healthy donors
Source text: as §1, §2

PK8 = assay: as above; details: CTLs from healthy donors
Source text: as §1, §2

SKHep1 = assay: as above; details: CTLs from healthy donors
Source text: as §1, §2

Compound	cytotoxicity (cytocidal effect) against peptide-pulsed T2 cells (T2 cells; listed as CDH3-7757-765)	cytotoxicity to HCT116 (HCT116)	cytotoxicity to HSC3 (CDH3+, HLA-A2+) (HSC3)	cytotoxicity to PANC1/CDH3 (PANC1/CDH3)	cytotoxicity to SKHep1/CDH3 (CDH3+, HLA-A2+) (SKHep1/CDH3)	cytotoxicity to HCT116 (CDH3+, HLA-A2+) (HCT116)	cytotoxicity (cytocidal effect) against peptide-pulsed T2 cells (T2 cells; listed as CDH3-4655-663)	cytotoxicity to PANC1 (CDH3−, HLA-A2+) (PANC1)	cytotoxicity to PK8 (CDH3+, HLA-A2−) (PK8)	cytotoxicity to SKHep1 (CDH3−, HLA-A2+) (SKHep1)	cytotoxicity to PANC1/CDH3 (CDH3+, HLA-A2+) (PANC1/CDH3; CTLs from healthy donors)
CC[C@H](C)[C@H](NC(=O)[C@@H](NC(=O)[C@@H](N)Cc1ccccc1)[C@@H](C)CC)C(=O)N[C@@H](CCC(=O)O)C(=O)N[C@@H](CC(N)=O)C(=O)N[C@@H](CC(C)C)C(=O)N[C@@H](CCCCN)C(=O)N[C@@H](C)C(=O)N[C@@H](C)C(=O)O [CDH3-7, FIIENLKAA] (H-FIIENLKAA-OH)	exhibited cytocidal effect; also recorded: exhibited cytotoxicity	exhibited cytotoxicity	exhibited cytotoxicity	exhibited cytotoxicity	exhibited cytotoxicity						
CC(C)C[C@H](NC(=O)[C@@H](NC(=O)[C@H](C)NC(=O)[C@H](Cc1ccc(O)cc1)NC(=O)[C@@H](NC(=O)[C@H](CC(N)=O)NC(=O)[C@H](Cc1ccc(O)cc1)NC(=O)[C@H](CC(C)C)NC(=O)[C@@H](N)CO)[C@@H](C)O)[C@@H](C)O)C(=O)O [HIV peptide, SLYNTYATL, reference compound] (H-SLYNTYATL-OH)						did not exhibit cytotoxicity; also recorded: did not show cytotoxicity					
CC[C@H](C)[C@H](NC(=O)[C@@H](N)Cc1ccccc1)C(=O)N[C@@H](CC(C)C)C(=O)N1CCC[C@H]1C(=O)N[C@H](C(=O)N[C@@H](CC(C)C)C(=O)NCC(=O)N[C@@H](C)C(=O)N[C@H](C(=O)O)C(C)C)C(C)C [CDH3-4, FILPVLGAV] (H-FILPVLGAV-OH)		exhibited cytotoxicity	exhibited in healthy donors cytotoxicity	exhibited cytotoxicity	exhibited cytotoxicity	exhibited in healthy donors cytotoxicity	exhibited cytocidal effect; also recorded: exhibited cytotoxicity	did not exhibit the same effect	did not exhibit the same effect	did not exhibit the same effect	exhibited in healthy donors cytotoxicity
